Assay results reported in PubChem BioAssay (NCI).
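Assay format: 96-well plates, 48-hour exposure. The concentration for 50% growth inhibition is given as GI50. TGI: total growth inhibition.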

Assays:
Test in all cases: NCI tumour cell line growth inhibition, 48 h
786-0 renal = system: 786-0 renal
OVCAR-4 ovarian = system: OVCAR-4 ovarian
CCRF-CEM leukemia = system: CCRF-CEM leukemia
OVCAR-8 ovarian = system: OVCAR-8 ovarian
SK-OV-3 ovarian = system: SK-OV-3 ovarian
SK-MEL-28 melanoma = system: SK-MEL-28 melanoma
MOLT-4 leukemia = system: MOLT-4 leukemia
LOX IMVI melanoma = system: LOX IMVI melanoma
A498 renal = system: A498 renal
RXF 393 renal = system: RXF 393 renal
SN12C renal = system: SN12C renal
K-562 leukemia = system: K-562 leukemia
BT-549 breast = system: BT-549 breast
NCI-H460 lung = system: NCI-H460 lung
HCC-2998 colon = system: HCC-2998 colon
OVCAR-3 ovarian = system: OVCAR-3 ovarian
M14 melanoma = system: M14 melanoma
HOP-92 NSCLC = system: HOP-92 NSCLC
CAKI-1 renal = system: CAKI-1 renal
TK-10 renal = system: TK-10 renal
NCI/ADR-RES ovarian = system: NCI/ADR-RES ovarian
ACHN renal = system: ACHN renal
PC-3 prostate = system: PC-3 prostate
SF-268 CNS = system: SF-268 CNS
HCT-116 colon = system: HCT-116 colon
IGROV1 ovarian = system: IGROV1 ovarian
MALME-3M melanoma = system: MALME-3M melanoma
SF-539 CNS = system: SF-539 CNS
SF-295 CNS = system: SF-295 CNS

Cn1cc(-c2cc(N)n3nc(-c4cn(C)c5ncccc45)cc3n2)c2cccnc21
GI50 (786-0 renal): 16.7 µM
TGI (786-0 renal): 32.2 µM
GI50 (OVCAR-4 ovarian): 17.2 µM
TGI (OVCAR-4 ovarian): 36.2 µM
GI50 (CCRF-CEM leukemia): 5.88 µM
TGI (CCRF-CEM leukemia): 94.5 µM
GI50 (OVCAR-8 ovarian): 18.7 µM
TGI (OVCAR-8 ovarian): 46 µM
GI50 (SK-OV-3 ovarian): > 100 µM
TGI (SK-OV-3 ovarian): > 100 µM
GI50 (SK-MEL-28 melanoma): 16.4 µM
TGI (SK-MEL-28 melanoma): 31.6 µM
GI50 (MOLT-4 leukemia): 17.7 µM
TGI (MOLT-4 leukemia): 51.6 µM
GI50 (LOX IMVI melanoma): 18.2 µM
TGI (LOX IMVI melanoma): 39.7 µM
GI50 (A498 renal): > 100 µM
TGI (A498 renal): > 100 µM
GI50 (RXF 393 renal): 5.11 µM
TGI (RXF 393 renal): 21.9 µM
GI50 (SN12C renal): 15.2 µM
TGI (SN12C renal): 30.4 µM
GI50 (K-562 leukemia): 6.6 µM
TGI (K-562 leukemia): 27 µM
GI50 (BT-549 breast): 17.4 µM
TGI (BT-549 breast): 39.1 µM
GI50 (NCI-H460 lung): 15.9 µM
TGI (NCI-H460 lung): 32.6 µM
GI50 (HCC-2998 colon): 15.1 µM
TGI (HCC-2998 colon): 28.3 µM
GI50 (OVCAR-3 ovarian): 15.6 µM
TGI (OVCAR-3 ovarian): 30.9 µM
GI50 (M14 melanoma): 16 µM
TGI (M14 melanoma): 30.9 µM
GI50 (HOP-92 NSCLC): 11.1 µM
TGI (HOP-92 NSCLC): 29.1 µM
GI50 (CAKI-1 renal): 16.9 µM
TGI (CAKI-1 renal): 35.6 µM
GI50 (TK-10 renal): 14.3 µM
TGI (TK-10 renal): 27.9 µM
GI50 (NCI/ADR-RES ovarian): 30.9 µM
TGI (NCI/ADR-RES ovarian): > 100 µM
GI50 (ACHN renal): 17.3 µM
TGI (ACHN renal): 33 µM
GI50 (PC-3 prostate): 15.2 µM
TGI (PC-3 prostate): 34.9 µM
GI50 (SF-268 CNS): > 100 µM
TGI (SF-268 CNS): > 100 µM
GI50 (HCT-116 colon): 16.8 µM
TGI (HCT-116 colon): 38.2 µM
GI50 (IGROV1 ovarian): 17.8 µM
TGI (IGROV1 ovarian): 37.6 µM
GI50 (MALME-3M melanoma): 17.3 µM
TGI (MALME-3M melanoma): 36.4 µM
GI50 (SF-539 CNS): 16.4 µM
TGI (SF-539 CNS): 32.1 µM
GI50 (SF-295 CNS): 17.5 µM
TGI (SF-295 CNS): 38.8 µM
